Reference: ChEMBL document CHEMBL1154825, “Schweinfurthins I and J from Macaranga schweinfurthii” (2010)

Experiments:
Assay type in all cases: functional
[1] = system: OVCAR-5; assay: Growth inhibition of human OVCAR5 cells
[2] = system: HCC 2998; assay: Growth inhibition of human HCC2998 cells
[3] = system: M14; assay: Growth inhibition of human M14 cells
[4] = system: UACC-62; assay: Growth inhibition of human UACC62 cells
[5] = system: SK-MEL-2; assay: Growth inhibition of human SK-MEL-2 cells
[6] = system: NCI-H23; assay: Growth inhibition of human NCI-H23 cells
[7] = system: OVCAR-4; assay: Growth inhibition of human OVCAR4 cells
[8] = system: PC-3; assay: Growth inhibition of human PC3 cells
[9] = system: HCT-116; assay: Growth inhibition of human HCT116 cells
[10] = system: DU-145; assay: Growth inhibition of human DU145 cells
[11] = system: TK-10; assay: Growth inhibition of human TK10 cells
[12] = system: NCI-H522; assay: Growth inhibition of human NCI-H522 cells
[13] = system: SK-OV-3; assay: Growth inhibition of human SKOV3 cells
[14] = system: MCF7; assay: Growth inhibition of human MCF7 cells
[15] = system: SK-MEL-28; assay: Growth inhibition of human SK-MEL-28 cells
[16] = system: SF-268; assay: Growth inhibition of human SF268 cells
[17] = system: CAKI-1; assay: Growth inhibition of human Caki1 cells
[18] = system: EKVX; assay: Growth inhibition of human EKVX cells
[19] = system: NCI-H460; assay: Growth inhibition of human NCI-H460 cells
[20] = system: Malme-3M; assay: Growth inhibition of human MALME-3M cells
[21] = system: NCI-H226; assay: Growth inhibition of human NCI-H226 cells
[22] = system: OVCAR-3; assay: Growth inhibition of human OVCAR-3 cells
[23] = system: HT-29; assay: Growth inhibition of human HT-29 cells
[24] = system: LOX IMVI; assay: Growth inhibition of human LOXIMVI cells
[25] = system: SR; assay: Growth inhibition of human SR cells
[26] = system: SK-MEL-5; assay: Growth inhibition of human SK-MEL-5 cells
[27] = system: UACC-257; assay: Growth inhibition of human UACC257 cells
[28] = system: BT-549; assay: Growth inhibition of human BT549 cells
[29] = system: T47D; assay: Growth inhibition of human T47D cells
[30] = system: OVCAR-8; assay: Growth inhibition of human OVCAR8 cells
[31] = system: HOP-92; assay: Growth inhibition of human HOP92 cells
[32] = system: IGROV-1; assay: Growth inhibition of human IGROV1 cells
[33] = system: SF-539; assay: Growth inhibition of human SF539 cells
[34] = system: SN12C; assay: Growth inhibition of human SN12C cells
[35] = system: MDA-MB-231; assay: Growth inhibition of human MDA-MB-231 cells
[36] = system: MDA-MB-435; assay: Growth inhibition of human MDA-MB-435 cells
[37] = system: COLO 205; assay: Growth inhibition of human COLO205 cells
[38] = system: A498; assay: Growth inhibition of human A498 cells
[39] = system: HL-60(TB); assay: Growth inhibition of human HL-60(TB) cells
[40] = system: RPMI-8226; assay: Growth inhibition of human RPMI8226 cells
[41] = Growth inhibition of human Hs 578T cells
[42] = system: UO-31; assay: Growth inhibition of human UO31 cells
[43] = system: NCI-H322M; assay: Growth inhibition of human NCI-H322M cells
[44] = read-out: pLC50 (the source's name) (converted)

CC(C)=CCC/C(C)=C/CC/C(C)=C/Cc1c(O)cc(/C=C/c2ccc(O)cc2)cc1O [SCHWEINFURTHIN J]
GI50 [1]: 4.47 µM
LC50 [1]: 44.7 µM
TGI ([1]; read-out: pTGI (converted)): 15.8 µM
GI50 [2]: 2.69 µM
LC50 [2]: 21.4 µM
TGI ([2]; read-out: pTGI (converted)): 6.31 µM
GI50 [3]: 2 µM
CC50 [3, 44]: 8.51 µM
TGI ([3]; read-out: pTGI (converted)): 4.17 µM
GI50 [4]: 2.24 µM
CC50 [4, 44]: 15.8 µM
TGI ([4]; read-out: pTGI (converted)): 5.25 µM
GI50 [5]: 2.75 µM
LC50 [5]: 31.6 µM
TGI ([5]; read-out: pTGI (converted)): 8.13 µM
GI50 [6]: 3.02 µM
LC50 [6]: 36.3 µM
TGI ([6]; read-out: pTGI (converted)): 8.51 µM
GI50 [7]: 3.89 µM
CC50 [7, 44]: 39.8 µM
TGI ([7]; read-out: pTGI (converted)): 14.8 µM
GI50 [8]: 3.02 µM
LC50 [8]: 42.7 µM
TGI ([8]; read-out: pTGI (converted)): 13.5 µM
GI50 [9]: 1.86 µM
CC50 [9, 44]: 7.94 µM
TGI ([9]; read-out: pTGI (converted)): 3.89 µM
GI50 [10]: 3.72 µM
LC50 [10]: 35.5 µM
TGI ([10]; read-out: pTGI (converted)): 12.9 µM
GI50 [11]: 2.63 µM
LC50 [11]: 31.6 µM
TGI ([11]; read-out: pTGI (converted)): 9.33 µM
GI50 [12]: 1.82 µM
LC50 [12]: 13.2 µM
TGI ([12]; read-out: pTGI (converted)): 4.47 µM
GI50 [13]: 7.24 µM
CC50 [13, 44]: 44.7 µM
TGI ([13]; read-out: pTGI (converted)): 19.5 µM
GI50 [14]: 2.57 µM
LC50 [14]: 43.7 µM
TGI ([14]; read-out: pTGI (converted)): 11.2 µM
GI50 [15]: 2.45 µM
CC50 [15, 44]: 23.4 µM
TGI ([15]; read-out: pTGI (converted)): 6.46 µM
GI50 [16]: 2.63 µM
LC50 [16]: 38 µM
TGI ([16]; read-out: pTGI (converted)): 11.5 µM
GI50 [17]: 1.82 µM
CC50 [17, 44]: 25.1 µM
TGI ([17]; read-out: pTGI (converted)): 5.89 µM
GI50 [18]: 4.27 µM
LC50 [18]: 46.8 µM
TGI ([18]; read-out: pTGI (converted)): 16.6 µM
GI50 [19]: 3.24 µM
LC50 [19]: 70.8 µM
TGI ([19]; read-out: pTGI (converted)): 12 µM
GI50 [20]: 2.95 µM
LC50 [20]: 39.8 µM
TGI ([20]; read-out: pTGI (converted)): 8.91 µM
GI50 [21]: 3.63 µM
LC50 [21]: 55 µM
TGI ([21]; read-out: pTGI (converted)): 14.8 µM
GI50 [22]: 2 µM
LC50 (concentration killing 50% of cells) [22]: 14.1 µM
TGI ([22]; read-out: pTGI (converted)): 4.79 µM
GI50 [23]: 3.98 µM
LC50 [23]: 49 µM
TGI ([23]; read-out: pTGI (converted)): 15.8 µM
GI50 [24]: 1.7 µM
CC50 [24, 44]: 5.89 µM
TGI ([24]; read-out: pTGI (converted)): 3.16 µM
GI50 [25]: 4.27 µM
LC50 [25]: > 100 µM
TGI ([25]; read-out: pTGI (converted)): 29.5 µM
GI50 [26]: 1.7 µM
CC50 [26, 44]: 5.75 µM
TGI ([26]; read-out: pTGI (converted)): 3.16 µM
GI50 [27]: 4.68 µM
LC50 [27]: 41.7 µM
TGI ([27]; read-out: pTGI (converted)): 16.2 µM
GI50 [28]: 2.57 µM
LC50 [28]: 30.9 µM
TGI ([28]; read-out: pTGI (converted)): 8.91 µM
GI50 [29]: 2.63 µM
LC50 [29]: 52.5 µM
TGI ([29]; read-out: pTGI (converted)): 13.2 µM
GI50 [30]: 3.31 µM
LC50 [30]: 43.7 µM
TGI ([30]; read-out: pTGI (converted)): 11.5 µM
GI50 [31]: 2.29 µM
CC50 [31, 44]: 34.7 µM
TGI ([31]; read-out: pTGI (converted)): 8.32 µM
GI50 [32]: 2.34 µM
CC50 [32, 44]: 38.9 µM
TGI ([32]; read-out: pTGI (converted)): 11.2 µM
GI50 [33]: 2.51 µM
LC50 [33]: 18.6 µM
TGI ([33]; read-out: pTGI (converted)): 5.62 µM
GI50 [34]: 1.95 µM
CC50 [34, 44]: 9.77 µM
TGI ([34]; read-out: pTGI (converted)): 4.37 µM
GI50 [35]: 3.47 µM
LC50 [35]: 44.7 µM
TGI ([35]; read-out: pTGI (converted)): 11.7 µM
GI50 [36]: 3.09 µM
CC50 [36, 44]: 46.8 µM
TGI ([36]; read-out: pTGI (converted)): 10.5 µM
GI50 [37]: 6.46 µM
LC50 [37]: 44.7 µM
TGI ([37]; read-out: pTGI (converted)): 18.6 µM
GI50 [38]: 2.82 µM
LC50 [38]: 45.7 µM
TGI ([38]; read-out: pTGI (converted)): 16.6 µM
GI50 [39]: 2.57 µM
CC50 [39, 44]: > 100 µM
TGI ([39]; read-out: pTGI (converted)): 18.6 µM
GI50 [40]: 3.16 µM
LC50 [40]: > 100 µM
TGI ([40]; read-out: pTGI (converted)): 14.8 µM
GI50 [41]: 2.88 µM
LC50 [41]: 89.1 µM
TGI ([41]; read-out: pTGI (converted)): 12.3 µM
GI50 [42]: 1.32 µM
LC50 (concentration killing 50% of cells) [42]: 34.7 µM
TGI ([42]; read-out: pTGI (converted)): 10.2 µM
GI50 [43]: 6.17 µM
LC50 [43]: 47.9 µM
TGI ([43]; read-out: pTGI (converted)): 20 µM
